The target of test [1] is T1, Solute carrier family 22 member 2 (Homo sapiens, UniProt O15244).
T1 sequence (O15244 whole entry): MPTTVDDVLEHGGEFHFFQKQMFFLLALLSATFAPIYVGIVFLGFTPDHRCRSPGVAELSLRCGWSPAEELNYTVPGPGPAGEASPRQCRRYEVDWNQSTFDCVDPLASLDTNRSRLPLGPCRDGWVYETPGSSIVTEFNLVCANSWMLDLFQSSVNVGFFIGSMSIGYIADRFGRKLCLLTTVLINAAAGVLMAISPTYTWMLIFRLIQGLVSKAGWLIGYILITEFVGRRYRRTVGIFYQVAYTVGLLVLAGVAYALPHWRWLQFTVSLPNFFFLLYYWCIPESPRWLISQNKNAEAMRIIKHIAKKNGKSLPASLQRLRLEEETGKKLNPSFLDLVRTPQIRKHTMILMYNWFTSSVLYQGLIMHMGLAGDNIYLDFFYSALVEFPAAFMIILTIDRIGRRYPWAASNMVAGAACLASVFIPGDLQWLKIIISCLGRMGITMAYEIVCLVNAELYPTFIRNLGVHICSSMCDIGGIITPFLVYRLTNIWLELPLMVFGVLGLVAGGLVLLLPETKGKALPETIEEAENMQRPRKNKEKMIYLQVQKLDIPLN
Type of test: functional, cell-based, Xenopus laevis, Oocyte.

Test [2] has as its target T1, Solute carrier family 22 member 2. The test is described as follows: (§1) TP_TRANSPORTER: inhibition of Cimetidine uptake (Cimetidine: 1 uM) in Xenopus laevis oocytes. Type of test: functional, cell-based, Oocyte.
Test [3] has as its target T2, Solute carrier family 22 member 1 (Homo sapiens, UniProt O15245).
T2 sequence (O15245 whole entry): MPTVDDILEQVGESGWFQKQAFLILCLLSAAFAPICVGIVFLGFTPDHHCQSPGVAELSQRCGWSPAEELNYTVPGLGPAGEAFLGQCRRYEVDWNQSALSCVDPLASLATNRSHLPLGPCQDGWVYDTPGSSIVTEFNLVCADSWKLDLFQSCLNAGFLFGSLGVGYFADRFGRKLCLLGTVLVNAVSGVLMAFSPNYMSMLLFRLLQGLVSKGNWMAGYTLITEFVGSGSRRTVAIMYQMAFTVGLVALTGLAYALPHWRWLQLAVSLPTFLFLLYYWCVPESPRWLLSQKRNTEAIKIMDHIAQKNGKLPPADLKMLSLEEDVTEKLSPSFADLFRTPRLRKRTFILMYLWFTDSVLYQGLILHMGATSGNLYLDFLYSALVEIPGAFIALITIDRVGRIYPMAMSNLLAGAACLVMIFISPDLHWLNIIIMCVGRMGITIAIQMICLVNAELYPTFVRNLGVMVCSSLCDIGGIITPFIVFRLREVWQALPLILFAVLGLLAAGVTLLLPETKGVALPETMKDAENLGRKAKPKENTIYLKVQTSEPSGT
The test is described as §1. Type of test: functional, cell-based, Oocyte.

pIC50: −log10 of the molar value.

For orientation: pIC50 means the IC50 on a negative log10 scale, so that one unit is a factor of ten. On to `CCC[N+](CCC)(CCC)CCC` [TETRAPROPYLAMMONIUM], for which the pIC50 in test [1] was 3.89.
Same read-out and setting: in the case of `CC[N+](CC)(CC)CC` [TETRYLAMMONIUM] it was 3.81.
For `[H]/N=C(/N)N/C(=N/[H])NCCc1ccccc1` [PHENFORMIN], the pIC50 in test [2] was 4.19; in test [3] it was 5.00.
On to `CCCC[N+](CCCC)(CCCC)CCCC` [TETRABUTHYLAMMONIUM], for which the negative-log IC50 (pIC50) in test [1] was 3.92.
`CN(C)C(=N)N=C(N)N` [METFORMIN] gave a pIC50 in test [2] of 2.77.

Source of the values: ChEMBL document CHEMBL2073978, “Interactions of n-tetraalkylammonium compounds and biguanides with a human renal organic cation transporter (hOCT2)” (Pharm Res, 2002).
